This is an account of results in patent US6653442B1, “Protegrins” (priority 1993, dated 2003).

For one data set, the system named is E. coli ML-35P. Briefly: Radial diffusion assay in agarose gels, E. coli. In kind it is cell-based.
Data set [1] relates to Listeria monocytogenes, strain EGD. Briefly: Radial diffusion assay in agarose gels, L. monocytogenes. Format: cell-based. Here is the method: Aliquots (66 μl) of each fraction were dried by vacuum centrifugation and resuspended in 6.6 μl of 0.01% acetic acid. Five μl samples of this concentrate were tested for antimicrobial activity against E. coliML-3, L. monocytogenes, strain EGD and C. albicans, strain 820, using radiodiffusion and gel overlay techniques as described by Lehrer, R. I. et al. J Immunol Meth (1991) 137:167-173. […] The units of activity in the radial diffusion assay were measured as described; 10 units correspond to a 1 mm diameter clear zone around the sample well. Activity was found in a large number of fractions.
The radial diffusion assay in agarose gels described in Example 1 was also used to test the activity of the purified protegrins. FIGS. 4a, 4b and 4c show the results against three test organisms in units described as above.
The antimicrobial activity of the linearalized forms was also compared with that of the native protegrins. Both linearalized and cyclic forms of the protegrins tested continue to show antimicrobial activity, although the effectiveness of these peptides as antimicrobials depends on the nature of the target organism and on the test conditions. The antimicrobial activity of native PG-1 and its linearalized form (cam-PG-1) and PG-3 and its linearalized form (cam-PG-3) were tested according to the procedure set forth in Example 1 as described by Lehrer, R. I. et al. J Immunol Meth (1991) 137:167-173.
Using standard solid phase techniques, a protegrin having the amino acid sequence of PG-1, but wherein every amino acid is in the D form was prepared. This form of protegrin was tested against E. coli, L. monocytogenes, C. albicans and other microbes in the absence and presence of protease and otherwise as described for the radiodiffusion assay in agarose gels set forth in Example 1.
The kite and bullet PG-1 compounds prepared in Example 12 were tested for antimicrobial activity using the radial diffusion assay described in Example 1 as published by Lehrer, R. I. et al., J Immunol Meth (1991) 137:167-173, except that the underlay agars contained […] sodium phosphate buffer with a final pH of 7.4. As described in Example 1, 0.3 mg/ml tripticase soy broth powder and 1% agarose were used as well in the underlay agar. In some cases 100 mM NaCl or RPMI plus 2.5% normal human serum (NHS) was added to the agar.

A further data set deals with C. albicans, strain 820. In kind it is cell-based, Candida albicans.
Data set [2] has as its system lipid polysaccharide (LPS) of E. coli strain 0.55B5. Briefly: Limulus amebocyte lysate (LAL) test for endotoxin binding. In kind it is biochemical.
The subject of data set [3] is N. gonorrhoeae strains FA 19 and F 62. The settings on record: for log reduction in CFU per ml: strains FA 19 and F 62.
Protocol: Nonpiliated transparent variants of strains FA 19 and F 62 were propagated on GCB agar plates containing glucose and iron supplements overnight at 37° C. under 3.8% V/V CO2. These strains were chosen for their adaptability to the assay.
The overnight growth is removed from the agar plate and suspended in GCB broth containing supplements and sodium bicarbonate and grown with shaking at 37° C. to mid log phase. The culture is diluted 1:100 in GCB broth to give about 10^6 CFU/ml and serial dilutions were plated onto GCB agar.
Ten μl of each dilution is added to a sterile polystyrene tube containing 90 μl of diluted bacteria and the tubes are shaken at 37° C. for 45 minutes. The contents are serially diluted 1:10 and plated on to GCB agar plates which are incubated in a CO2 incubator. CFU are counted after 24 hours and the log bactericidal activity calculated.
The test system of another data set is HIVJR-CSF and HIVJR-FL. Briefly: HIV infection of human peripheral blood mononuclear cells, p24 antigen.
Data set [4] is described as follows: Autoclaving, retained antimicrobial activity. In kind it is physicochemical. To be noted: autoclaved.
Data set [5] in a line: Radial diffusion assay in 25 mM borate buffer (Table 4). Format: cell-based. The settings on record: buffer (25 mM borate buffer, pH 7.4). Here is the method:
Contact lens solutions are typically formulated with borate buffered physiological saline and may or may not contain EDTA in addition. Protegrins in the form of the synthetic PG-3 amide and synthetic PG acid were tested generally in the assay described in Example 1 wherein all underlay gels contain 25 mM borate buffer, pH […] tryptocase soy broth ([…] TSB powder) and […]. Additions included either 100 mM NaCl, 1 mM EDTA or a combination thereof. Other test compounds used as controls were the defensin NP-1 and lysozyme. Dose response curves were determined.

The next data set deals with Candida albicans. Briefly: Radial diffusion assay in 25 mM borate buffer, Candida albicans. In kind it is cell-based.
A further data set concerns L. monocytogenes. Briefly: Radial diffusion assay in 25 mM borate buffer, L. monocytogenes. Format: cell-based.
Data set [6] concerns E. coli ML-35 (serum sensitive). Briefly: Underlay gel assay with and without normal human serum, E. coli ML-35. In kind it is cell-based. To be noted: 10 mM sodium phosphate buffer, pH 7.4.
[7] abbreviates: radial diffusion, underlay agar pH 6.5.
[8] abbreviates: 2.5 μg peptide in 0.2 ml, LPS 0.05 endotoxin unit/ml.
[9] abbreviates: 5 μg peptide in 0.2 ml, LPS 0.05 endotoxin unit/ml.
Setting [10] is: 10 μg peptide in 0.2 ml, LPS 0.05 endotoxin unit/ml.

Bridge positions count the residues as written; N and C are the ends. Ends that are not written are not given here. Peptide text beside a SMILES is read from it.

Protocol for C. albicans, strain 820: Similarly, using C. albicans as a target organism, underlayers were prepared with 10 mM sodium phosphate with and without 10% normal human serum.
Protocol for E. coli ML-35P: Aliquots (66 μl) of each fraction were dried by vacuum centrifugation and resuspended in 6.6 μl of 0.01% acetic acid. […] The units of activity in the radial diffusion assay were measured as described; 10 units correspond to a 1 mm diameter clear zone around the sample well.
Protocol for HIVJR-CSF and HIVJR-FL: Briefly, the mononuclear cell fraction is recovered from normal donor leukopacs from the American Red Cross using a Ficoll-hypaque density gradient. The mononuclear cells are resuspended at 1×10^6 cells per ml in RPMI 1640 medium with 20% fetal bovine serum, 1% penn/strep with fungizone and 0.5% PHA and incubated 24 hours at 37° C. in 5% CO2. The cells are centrifuged, washed and then expanded for 24 hours in growth medium.
Non-laboratory adapted, cloned HIVJR-CSF and HIVJR-FL were electroporated into the human peripheral blood mononuclear cells prepared as described above. Titers were determined and in general, multiplicities of infection (MOI) of about 4,000 infectious units per cell are used (which corresponds to 25-40 picograms per ml HIV p24 antigen in the supernatant).
In the assay, the HIV stocks prepared as above were diluted to the correct MOI and the PBM are added to 24 well plates at a concentration of 2×10^6 per ml. One μl total volume is added to each well. The peptide to be tested is added in growth medium to achieve the final desired concentration. Then the appropriate number of MOI are added. To assay viral growth, 200 μl of supernatant is removed on days 3 and 7 and the concentration of p24 antigen is determined using a commercial assay (Coulter Immunology, Hialeah, Fla.). Controls include duplicate wells containing cells alone, cells plus peptide at 5 μg/ml cells with virus but not peptide and cells with virus in the presence of AZT at 10^−5 M-10^−8 M.

With “R-G-G-R-L-C-Y-C-R-R-R-F-C-I-C-V (RGGRLCYCRRRFCICV) [PG-2]”, in the data set on E. coli ML-35P (setting [7]), the “antibacterial activity against E. coli (FIG. 4a)” value is on record as “effective against the three organisms tested but was not as active as the other two peptides”. Besides, the “antibacterial activity against Listeria monocytogenes (FIG. 4b)” value in [1] (setting [7]) is given as “effective against the three organisms tested but was not as active as the other two peptides”. The “antifungal activity against Candida albicans (FIG. 4c)” value in the data set with C. albicans, strain 820 (setting [7]) was “effective against the three organisms tested but was not as active as the other two peptides”. For the same compound, the “gel formation in LAL test” value was “no gel” in data set [2] (1.0 μg peptide in 0.2 ml, LPS 0.05 endotoxin unit/ml); “no gel” in data set [2] (setting [8]); “no gel” in [2] (setting [9]); “no gel” in data set [2] (setting [10]). The “reduction in CFU per ml” value in data set [3] (45 minutes at 37° C.) is on record as 2.6 fold. The “anti-HIV activity level relative to PG-1” value in the data set on HIVJR-CSF and HIVJR-FL is given as “approximately 5 fold less”.

For the compound “R-G-G-R-L-C-Y-C-R-P-R-F-C-V-C-V-G-R (RGGRLCYCRPRFCVCVGR-NH2; cysteine pairing not given here) [PG-5]”, the “antimicrobial activity against E. coli compared to synthetic PG-1 (FIGS. 11a-11c)” value in the data set with E. coli ML-35P is on record as “comparable antimicrobial activity to PG-1”. The “antimicrobial activity against L. monocytogenes compared to synthetic PG-1 (FIGS. 11a-11c)” value in data set [1] is given as “comparable antimicrobial activity to PG-1”. For the same compound, the “antimicrobial activity against C. albicans compared to synthetic PG-1 (FIGS. 11a-11c)” value with C. albicans, strain 820 is on record as “comparable antimicrobial activity to PG-1”.

On to `CC(C)C[C@H](NC(=O)CNC(=O)CNC(=O)CNC(=O)[C@@H](N)CCCNC(=N)N)C(=O)N[C@H]1CSSC[C@@H](C(=O)N[C@H](C(=O)NCC(=O)N[C@@H](CCCNC(=N)N)C(=O)O)C(C)C)NC(=O)[C@H](C(C)C)NC(=O)[C@@H]2CSSC[C@H](NC(=O)[C@H](Cc3ccc(O)cc3)NC1=O)C(=O)N[C@@H](CCCNC(=N)N)C(=O)N[C@@H](CCCNC(=N)N)C(=O)N[C@@H](CCCNC(=N)N)C(=O)N[C@@H](Cc1ccccc1)C(=O)N2` [sPG-3 acid] (H-RGGGLCYCRRRFCVCVGR-OH; disulfide 6-15, 8-13; N-terminus assumed), for which the “antimicrobial activity against E. coli, L. monocytogenes and C. albicans after autoclaving” value in [4] was “retaining full antimicrobial activity in all cases”. Moreover, the figures for the “gel formation in LAL test” value in data set [2] (setting [8]), in [2] (setting [9]) and in [2] (setting [10]) were “trace”, “no gel” and “no gel”, respectively. Besides, the “ESTIMATED MINIMAL FUNGICIDAL CONCENTRATIONS” value in data set [5] was 15.0 µg/mL; in the data set with Candida albicans (25 mM borate buffer), 19.0 µg/mL; in the data set with Candida albicans (borate buffer + 120 mM NaCl), 9.2 µg/mL; in the data set with Candida albicans (borate buffer + EDTA & NaCl) it was 9.3 µg/mL. Moreover, the “ESTIMATED MINIMAL BACTERICIDAL CONCENTRATIONS” value was 30.0 µg/mL with L. monocytogenes (25 mM borate buffer), 7.0 µg/mL with L. monocytogenes (borate buffer + 120 mM NaCl) and 7.0 µg/mL with L. monocytogenes (borate buffer + EDTA & NaCl). For the same compound, the “log reduction in CFU per ml” value in data set [3] is on record as above 5 log.

In the case of `CC[C@H](C)[C@@H]1NC(=O)[C@H](CCCNC(=N)N)NC(=O)[C@@H]2CSSC[C@@H]3NC(=O)[C@H](C)NC(=O)[C@@H](NC(=O)[C@@H](NC(=O)[C@@H](N)C(C)C)C(C)C)CSSC[C@@H](C(=O)N[C@@H](CCCNC(=N)N)C(=O)N[C@@H](CCCNC(=N)N)C(=O)O)NC(=O)[C@H](CSSC[C@H](NC(=O)[C@H](CC(C)C)NC(=O)[C@H](C)NC(=O)[C@H](CCCNC(=N)N)NC(=O)[C@H](CCCNC(=N)N)NC3=O)C(=O)N[C@@H](CC(C)C)C(=O)N3CCC[C@H]3C(=O)N[C@@H](CCCNC(=N)N)C(=O)N[C@@H](CCC(=O)O)C(=O)N[C@@H](CCCNC(=N)N)C(=O)N[C@@H](CCCNC(=N)N)C(=O)N[C@@H](C)C(=O)NCC(=O)N[C@@H](Cc3ccccc3)C(=O)N2)NC(=O)[C@H](CC(C)C)NC(=O)[C@@H]2CCCN2C(=O)[C@H](Cc2c[nH]cn2)NC(=O)[C@H]([C@@H](C)CC)NC(=O)[C@H](CCCNC(=N)N)NC(=O)CNC(=O)[C@H](CCCNC(=N)N)NC1=O` [NP-1, reference compound] (H-VVCACRRALCLPRERRAGFCRIRGRIHPLCCRR-OH; disulfide 3-31, 5-20, 10-30; N-terminus and C-terminus assumed), the “activity against E. coli in NaCl (FIG. 5b)” value in the data set with E. coli ML-35P (in the presence of 100 mM NaCl) was “Neither NP-1 nor HNP-1 have this property”. Besides, the “activity against Candida albicans in fetal calf serum (FIG. 5c)” value in the data set with C. albicans, strain 820 (90% fetal calf serum) is listed as “lose their ability to inactivate C. albicans”. Besides, the “activity against C. albicans in NaCl (FIG. 5a)” value with C. albicans, strain 820 (in the presence of 100 mM NaCl) is “Neither NP-1 nor HNP-1 have this property”. Moreover, the “ESTIMATED MINIMAL FUNGICIDAL CONCENTRATIONS” value in data set [5] was 35.0 µg/mL; in the data set on Candida albicans (25 mM borate buffer) it was 23.0 µg/mL; in the data set on Candida albicans (borate buffer + 120 mM NaCl), 60.0 µg/mL; with Candida albicans (borate buffer + EDTA & NaCl), 65.0 µg/mL. Also, the “ESTIMATED MINIMAL BACTERICIDAL CONCENTRATIONS” value in the data set with L. monocytogenes (25 mM borate buffer) was 20.0 µg/mL; in the data set with L. monocytogenes (borate buffer + 120 mM NaCl), 11.0 µg/mL; in the data set with L. monocytogenes (borate buffer + EDTA & NaCl), 3.8 µg/mL.

Take `CC(C)C[C@H](NC(=O)CNC(=O)CNC(=O)CNC(=O)[C@@H](N)CCCNC(=N)N)C(=O)N[C@H]1CSSC[C@@H](C(=O)N[C@H](C(=O)NCC(=O)N[C@@H](CCCNC(=N)N)C(N)=O)C(C)C)NC(=O)[C@H](C(C)C)NC(=O)[C@@H]2CSSC[C@H](NC(=O)[C@H](Cc3ccc(O)cc3)NC1=O)C(=O)N[C@@H](CCCNC(=N)N)C(=O)N[C@@H](CCCNC(=N)N)C(=O)N[C@@H](CCCNC(=N)N)C(=O)N[C@@H](Cc1ccccc1)C(=O)N2` [sPG-3 amide] (H-RGGGLCYCRRRFCVCVGR-NH2; disulfide 6-15, 8-13; N-terminus assumed): the “antimicrobial activity against E. coli, L. monocytogenes and C. albicans after autoclaving” value in data set [4] is recorded as “retaining full antimicrobial activity in all cases”. The “gel formation in LAL test” value in [2] (0.5 μg peptide, 0.05 E.U.) is given as “no gel”; in data set [2] (1.0 μg peptide, 0.05 E.U.) it was “no gel”; in data set [2] (1.0 μg peptide, 0.10 E.U.), “no gel”; in data set [2] (1.0 μg peptide, 0.25 E.U.) it was “no gel”; in data set [2] (setting [8]), “no gel”; in [2] (2.5 μg peptide, 0.05 E.U.), “no gel”. The “gel formation in LAL test” value in data set [2] (2.5 μg peptide, 0.10 E.U.) was “no gel”; in [2] (2.5 μg peptide, 0.25 E.U.), “no gel”. In addition, the “ESTIMATED MINIMAL FUNGICIDAL CONCENTRATIONS” value in [5] is 13.0 µg/mL; in the data set on Candida albicans (25 mM borate buffer), 19.0 µg/mL; in the data set with Candida albicans (borate buffer + 120 mM NaCl), 7.7 µg/mL; with Candida albicans (borate buffer + EDTA & NaCl), 7.0 µg/mL. Moreover, the “ESTIMATED MINIMAL BACTERICIDAL CONCENTRATIONS” value was 21.0 µg/mL in the data set with L. monocytogenes (25 mM borate buffer), 5.7 µg/mL in the data set with L. monocytogenes (borate buffer + 120 mM NaCl) and 5.2 µg/mL with L. monocytogenes (borate buffer + EDTA & NaCl). Further, in data set [3], the “log reduction in CFU per ml” value is above 5 log.

For `CC(C)C[C@H](NC(=O)[C@H](CCCNC(=N)N)NC(=O)CNC(=O)CNC(=O)[C@@H](N)CCCNC(=N)N)C(=O)N[C@H]1CSSC[C@@H](C(=O)N[C@H](C(=O)NCC(=O)N[C@@H](CCCNC(=N)N)C(N)=O)C(C)C)NC(=O)[C@H](C(C)C)NC(=O)[C@@H]2CSSC[C@H](NC(=O)[C@H](Cc3ccc(O)cc3)NC1=O)C(=O)N[C@@H](CCCNC(=N)N)C(=O)N[C@@H](CCCNC(=N)N)C(=O)N[C@@H](CCCNC(=N)N)C(=O)N[C@@H](Cc1ccccc1)C(=O)N2` [synthetic PG-1], the values for the minimal bacteriocidal concentration result in data set [6] (absence of serum) and in data set [6] (presence of […] normal human serum) were “approximately 1.0 μg/ml” and “about 0.1 μg/ml”, respectively.

Consider lysozyme [reference compound], for which the “ESTIMATED MINIMAL FUNGICIDAL CONCENTRATIONS” value in [5] is 75.0 µg/mL.
